pIC50: −log10 of the molar value.
Biological target: PDGFRβ (Rattus norvegicus (Rat), UniProt Q05030)
Assay: PDGFRβ Cellular Assay (PDGFRb P-Y751 HTRF in A10 cells stimulated with PDGF-BB)
Format: cell-based
Conditions: read-out: PDGFR Cellular IC50
Outline: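 Phospho-Y751 PDGFRβ was measured by HTRF in lysates of A10 rat cells. Cells received compound for 3 hours before PDGF-BB stimulation (100 ng/mL working stock).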

Sequence of PDGFRβ (Q05030 32-1097): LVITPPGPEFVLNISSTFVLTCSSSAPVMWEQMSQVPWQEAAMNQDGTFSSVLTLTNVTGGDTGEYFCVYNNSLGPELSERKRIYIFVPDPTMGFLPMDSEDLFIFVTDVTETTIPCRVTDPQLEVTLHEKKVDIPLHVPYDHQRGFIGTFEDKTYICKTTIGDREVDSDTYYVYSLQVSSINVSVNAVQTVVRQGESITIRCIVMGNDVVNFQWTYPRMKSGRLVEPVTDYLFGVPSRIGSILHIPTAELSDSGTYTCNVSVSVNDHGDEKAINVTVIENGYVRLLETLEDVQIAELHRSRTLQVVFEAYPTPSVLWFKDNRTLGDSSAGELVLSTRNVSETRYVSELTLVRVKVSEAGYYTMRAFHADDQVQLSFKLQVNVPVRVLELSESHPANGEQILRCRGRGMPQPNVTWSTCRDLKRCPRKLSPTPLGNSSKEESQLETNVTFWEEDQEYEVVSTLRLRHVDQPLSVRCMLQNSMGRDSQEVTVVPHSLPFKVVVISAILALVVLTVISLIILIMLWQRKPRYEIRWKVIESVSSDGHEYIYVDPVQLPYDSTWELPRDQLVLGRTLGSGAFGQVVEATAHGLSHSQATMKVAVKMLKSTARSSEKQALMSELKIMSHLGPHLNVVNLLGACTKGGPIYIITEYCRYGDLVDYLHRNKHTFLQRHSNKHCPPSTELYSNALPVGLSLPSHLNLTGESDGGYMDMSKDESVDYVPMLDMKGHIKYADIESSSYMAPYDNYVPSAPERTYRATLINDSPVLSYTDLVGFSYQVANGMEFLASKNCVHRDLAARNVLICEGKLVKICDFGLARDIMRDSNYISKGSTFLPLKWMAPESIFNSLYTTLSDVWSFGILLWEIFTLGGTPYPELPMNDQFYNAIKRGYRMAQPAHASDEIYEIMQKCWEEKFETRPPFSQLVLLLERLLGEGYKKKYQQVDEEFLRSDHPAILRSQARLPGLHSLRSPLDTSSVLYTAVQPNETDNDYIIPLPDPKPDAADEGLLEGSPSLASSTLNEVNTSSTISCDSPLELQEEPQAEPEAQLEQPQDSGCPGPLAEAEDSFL

Question: With `Cc1ncc(C(=O)NCCN2CC(F)(F)C2)cc1NC(=O)c1cnn2cc(-c3ccncc3)sc12` [Example 152, N-(5-((2-(3,3-difluoroazetidin-1-yl)ethyl)carbamoyl)-2-methylpyridin-3-yl)-2-(pyridin-4-yl)pyrazolo[5,1-b]thiazole-7-carboxamide] as the compound, how does the pIC50 read?
Answer: 7.18

Question: With `Cc1ncc(C(=O)NCCN2CCC23CCC3)cc1NC(=O)c1cnn2cc(-c3cn(C)nc3C)sc12` [Example 175, N-(5-((2-(1-azaspiro[3.3]heptan-1-yl)ethyl)carbamoyl)-2-methylpyridin-3-yl)-2-(1,3-dimethyl-1H-pyrazol-4-yl)pyrazolo[5,1-b]thiazole-7-carboxamide] as the compound, how does the pIC50 read?
Answer: 7.78

Question: `Cc1ncc(C(=O)NCCN2CCCC23COC3)cc1NC(=O)c1cnn2cc(-c3c(C)nn(C)c3C)sc12` [Example 179, N-(5-((2-(2-oxa-5-azaspiro[3.4]octan-5-yl)ethyl)carbamoyl)-2-methylpyridin-3-yl)-2-(1,3,5-trimethyl-1H-pyrazol-4-yl)pyrazolo[5,1-b]thiazole-7-carboxamide] was tested. Which pIC50 did it give?
Answer: 7.26

Question: How did the pIC50 turn out when `COCCn1nc(C)c(-c2cn3ncc(C(=O)Nc4cc(NC(=O)CCN5CC6CCC(C5)O6)cnc4C)c3s2)c1C` [Example 102, N-(5-(3-(8-oxa-3-azabicyclo[3.2.1]octan-3-yl)propanamido)-2-methylpyridin-3-yl)-2-(1-(2-methoxyethyl)-3,5-dimethyl-1H-pyrazol-4-yl)pyrazolo[5,1-b]thiazole-7-carboxamide] was run?
Answer: 7.66

Question: `Cc1ncc(C(=O)NCCN2CCCOCC2)cc1NC(=O)c1cnn2cc(-c3cnn(C)c3)sc12` [Example 121, N-(5-((2-(1,4-oxazepan-4-yl)ethyl)carbamoyl)-2-methylpyridin-3-yl)-2-(1-methyl-1H-pyrazol-4-yl)pyrazolo[5,1-b]thiazole-7-carboxamide] was tested. Which pIC50 did it give?
Answer: 7.09

Question: How did the pIC50 turn out when `Cc1ncc(C(=O)NCCN2CCCC23COC3)cc1NC(=O)c1cnn2cc(-c3cn(C)nc3C)sc12` [Example 176, N-(5-((2-(2-oxa-5-azaspiro[3.4]octan-5-yl)ethyl)carbamoyl)-2-methylpyridin-3-yl)-2-(1,3-dimethyl-1H-pyrazol-4-yl)pyrazolo[5,1-b]thiazole-7-carboxamide] was run?
Answer: 7.54

Question: `Cc1ncc(C(=O)NCCN2CC3CCC2CC3)cc1NC(=O)c1cnn2cc(-c3cnn(C)c3C)sc12` [Example 171, N-(5-((2-(2-azabicyclo[2.2.2]octan-2-yl)ethyl)carbamoyl)-2-methylpyridin-3-yl)-2-(1,5-dimethyl-1H-pyrazol-4-yl)pyrazolo[5,1-b]thiazole-7-carboxamide] was tested. Which pIC50 did it give?
Answer: 7.46

Question: With `Cc1ncc(C(=O)NCCN2CCC(F)(F)C2)cc1NC(=O)c1cnn2cc(-c3cnn(C)c3)sc12` [Example 120, N-(5-((2-(3,3-difluoropyrrolidin-1-yl)ethyl)carbamoyl)-2-methylpyridin-3-yl)-2-(1-methyl-1H-pyrazol-4-yl)pyrazolo[5,1-b]thiazole-7-carboxamide] as the compound, how does the pIC50 read?
Answer: 8.03

Question: How did the pIC50 turn out when `Cc1ncc(C(=O)NCCN2CC(F)(F)C2)cc1NC(=O)c1cnn2cc(-c3cnn(C)c3)sc12` [Example 125, N-(5-((2-(3,3-difluoroazetidin-1-yl)ethyl)carbamoyl)-2-methylpyridin-3-yl)-2-(1-methyl-1H-pyrazol-4-yl)pyrazolo[5,1-b]thiazole-7-carboxamide] was run?
Answer: 7.32

Question: `Cc1ncc(NC(=O)NCC2CCN(C)CC2)cc1NC(=O)c1cnn2cc(-c3cnn(C)c3)sc12` [Example 107, 2-(1-methyl-1H-pyrazol-4-yl)-N-(2-methyl-5-(3-((1-methylpiperidin-4-yl)methyl)ureido)pyridin-3-yl)pyrazolo[5,1-b]thiazole-7-carboxamide] was tested. Which pIC50 did it give?
Answer: < 5.52

Question: `COCCn1nc(C)c(-c2cn3ncc(C(=O)Nc4cc(NC(=O)CCN5CCC6(CC6)C5)cnc4C)c3s2)c1C` [Example 103, N-(5-(3-(5-azaspiro[2.4]heptan-5-yl)propanamido)-2-methylpyridin-3-yl)-2-(1-(2-methoxyethyl)-3,5-dimethyl-1H-pyrazol-4-yl)pyrazolo[5,1-b]thiazole-7-carboxamide] was tested. Which pIC50 did it give?
Answer: 7.41

Question: How did the pIC50 turn out when `CC(=O)Nc1cncc(-c2cn3ncc(C(=O)Nc4cc(C(=O)NCCN5CC6CCC5CC6)cnc4C)c3s2)c1` [Example 147, N-(5-((2-(2-azabicyclo[2.2.2]octan-2-yl)ethyl)carbamoyl)-2-methylpyridin-3-yl)-2-(5-acetamidopyridin-3-yl)pyrazolo[5,1-b]thiazole-7-carboxamide] was run?
Answer: < 5.70

Question: `Cc1ncc(C(=O)NCCN2CC(C)(C)C2)cc1NC(=O)c1cnn2cc(-c3ccncc3)sc12` [Example 155, N-(5-((2-(3,3-dimethylazetidin-1-yl)ethyl)carbamoyl)-2-methylpyridin-3-yl)-2-(pyridin-4-yl)pyrazolo[5,1-b]thiazole-7-carboxamide] was tested. Which pIC50 did it give?
Answer: 6.82

Question: How did the pIC50 turn out when `COCCn1cc(-c2cn3ncc(C(=O)Nc4cc(C(=O)NCCN5CC6(CCC6)C5)cnc4C)c3s2)cn1` [Example 168, N-(5-((2-(2-azaspiro[3.3]heptan-2-yl)ethyl)carbamoyl)-2-methylpyridin-3-yl)-2-(1-(2-methoxyethyl)-1H-pyrazol-4-yl)pyrazolo[5,1-b]thiazole-7-carboxamide] was run?
Answer: 6.43

Question: `Cc1ncc(C(=O)NCCN2CCCC2(C)C)cc1NC(=O)c1cnn2cc(-c3cn(C)cn3)sc12` [Example 163, N-(5-((2-(2,2-dimethylpyrrolidin-1-yl)ethyl)carbamoyl)-2-methylpyridin-3-yl)-2-(1-methyl-1H-imidazol-4-yl)pyrazolo[5,1-b]thiazole-7-carboxamide] was tested. Which pIC50 did it give?
Answer: 6.80

Question: With `Cc1ncc(C(=O)NCCN2CCC3(CC3)C2)cc1NC(=O)c1cnn2cc(-c3cccnc3)sc12` [Example 159, N-(5-((2-(5-azaspiro[2.4]heptan-5-yl)ethyl)carbamoyl)-2-methylpyridin-3-yl)-2-(pyridin-3-yl)pyrazolo[5,1-b]thiazole-7-carboxamide] as the compound, how does the pIC50 read?
Answer: 7.06

Question: `COCCn1cc(-c2cn3ncc(C(=O)Nc4cc(NC(=O)CCN5CCC56CCC6)cnc4C)c3s2)cn1` [Example 95, N-(5-(3-(1-azaspiro[3.3]heptan-1-yl)propanamido)-2-methylpyridin-3-yl)-2-(1-(2-methoxyethyl)-1H-pyrazol-4-yl)pyrazolo[5,1-b]thiazole-7-carboxamide] was tested. Which pIC50 did it give?
Answer: 7.75

Question: With `Cc1ncc(C(=O)NCCN2C3CCC2COC3)cc1NC(=O)c1cnn2cc(-c3cnn(C)c3)sc12` [Example 122, N-(5-((2-(3-oxa-8-azabicyclo[3.2.1]octan-8-yl)ethyl)carbamoyl)-2-methylpyridin-3-yl)-2-(1-methyl-1H-pyrazol-4-yl)pyrazolo[5,1-b]thiazole-7-carboxamide] as the compound, how does the pIC50 read?
Answer: 7.71

Question: `COCCN(CCNC(=O)c1cnc(C)c(NC(=O)c2cnn3cc(-c4cnn(C)c4)sc23)c1)CCOC` [Example 128, N-(5-((2-(bis(2-methoxyethyl)amino)ethyl)carbamoyl)-2-methylpyridin-3-yl)-2-(1-methyl-1H-pyrazol-4-yl)pyrazolo[5,1-b]thiazole-7-carboxamide] was tested. Which pIC50 did it give?
Answer: 7.33

Question: `COCCn1cc(-c2cn3ncc(C(=O)Nc4cc(C(=O)NCCN5CCC(F)(F)C5)cnc4C)c3s2)cn1` [Example 167, N-(5-((2-(3,3-difluoropyrrolidin-1-yl)ethyl)carbamoyl)-2-methylpyridin-3-yl)-2-(1-(2-methoxyethyl)-1H-pyrazol-4-yl)pyrazolo[5,1-b]thiazole-7-carboxamide] was tested. Which pIC50 did it give?
Answer: 7.61

Question: With `Cc1ncc(C(=O)NCCN2CCC(C)(C)C2)cc1NC(=O)c1cnn2cc(-c3ccncc3)sc12` [Example 156, N-(5-((2-(3,3-dimethylpyrrolidin-1-yl)ethyl)carbamoyl)-2-methylpyridin-3-yl)-2-(pyridin-4-yl)pyrazolo[5,1-b]thiazole-7-carboxamide] as the compound, how does the pIC50 read?
Answer: 7.58

Question: How did the pIC50 turn out when `Cc1ncc(C(=O)NCCN2CCC3(CC3)C2)cc1NC(=O)c1cnn2cc(-c3ccncc3)sc12` [Example 153, N-(5-((2-(5-azaspiro[2.4]heptan-5-yl)ethyl)carbamoyl)-2-methylpyridin-3-yl)-2-(pyridin-4-yl)pyrazolo[5,1-b]thiazole-7-carboxamide] was run?
Answer: 6.98

Question: `Cc1ncc(C(=O)NCCN2CC3CCC2CC3)cc1NC(=O)c1cnn2cc(-c3ccc4oc(=O)[nH]c4c3)sc12` [Example 145, N-(5-((2-(2-azabicyclo[2.2.2]octan-2-yl)ethyl)carbamoyl)-2-methylpyridin-3-yl)-2-(2-oxo-2,3-dihydrobenzo[d]oxazol-5-yl)pyrazolo[5,1-b]thiazole-7-carboxamide] was tested. Which pIC50 did it give?
Answer: 6.39

Question: How did the pIC50 turn out when `Cc1ncc(C(=O)NCCN2C3CCC2CC3)cc1NC(=O)c1cnn2cc(-c3cnn(C)c3C)sc12` [Example 172, N-(5-((2-(7-azabicyclo[2.2.1]heptan-7-yl)ethyl)carbamoyl)-2-methylpyridin-3-yl)-2-(1,5-dimethyl-1H-pyrazol-4-yl)pyrazolo[5,1-b]thiazole-7-carboxamide] was run?
Answer: 7.18

Question: With `Cc1ncc(NC(=O)CCN2CCC3(CC2)CC3)cc1NC(=O)c1cnn2cc(-c3cnn(C)c3)sc12` [Example 97, N-(5-(3-(6-azaspiro[2.5]octan-6-yl)propanamido)-2-methylpyridin-3-yl)-2-(1-methyl-1H-pyrazol-4-yl)pyrazolo[5,1-b]thiazole-7-carboxamide] as the compound, how does the pIC50 read?
Answer: 8.08

Question: How did the pIC50 turn out when `Cc1ncc(C(=O)NCCN2CCC3(CCC3)C2)cc1NC(=O)c1cnn2cc(-c3cnn(C)c3)sc12` [Example 113, N-(5-((2-(6-azaspiro[3.4]octan-6-yl)ethyl)carbamoyl)-2-methylpyridin-3-yl)-2-(1-methyl-1H-pyrazol-4-yl)pyrazolo[5,1-b]thiazole-7-carboxamide] was run?
Answer: 7.94

Question: With `Cc1ncc(C(=O)NCCN2C3CCCC2CCC3)cc1NC(=O)c1cnn2cc(-c3cnn(C)c3)sc12` [Example 4, N-(5-((2-(9-azabicyclo[3.3.1]nonan-9-yl)ethyl)carbamoyl)-2-methylpyridin-3-yl)-2-(1-methyl-1H-pyrazol-4-yl)pyrazolo[5,1-b]thiazole-7-carboxamide] as the compound, how does the pIC50 read?
Answer: 7.93

Question: With `Cc1ncc(C(=O)NCCN2CCCC23COC3)cc1NC(=O)c1cnn2cc(-c3cnn(C)c3)sc12` [Example 114, N-(5-((2-(2-oxa-5-azaspiro[3.4]octan-5-yl)ethyl)carbamoyl)-2-methylpyridin-3-yl)-2-(1-methyl-1H-pyrazol-4-yl)pyrazolo[5,1-b]thiazole-7-carboxamide] as the compound, how does the pIC50 read?
Answer: 7.56

Source: patent US20240109917A1 (ACTELION PHARMACEUTICALS LTD, priority 2020, published 2024)
